Reference: publication PMC7084598, “Design, Synthesis, and Biological Evaluation of Two Series of Novel A-Ring Fused Steroidal Pyrazines as Potential Anticancer Agents” (International Journal of Molecular Sciences, 2020)

Key:
NCI-H460 = system: NCI-H460; set-up: method as in PMID 14695204, PMID 26042639; conditions: cited from earlier work
MCF-7 = system: MCF-7; set-up: method as in PMID 14695204, PMID 26042639; conditions: cited from earlier work
DU-145 = system: DU-145; set-up: method as in PMID 14695204, PMID 26042639; conditions: cited from earlier work
MCF-7 (breast carcinoma) = assay: CCK-8 antiproliferative assay, MCF-7; assay type: cell-based; conditions: Homo sapiens, MCF7, 48 h, CCK8, mean of three independent experiments, NA = no activity, read-out: Inhibitory Ratio (Mean% ± SD%) MCF-7
Protocol: (§1) All the thirty-six target derivatives (5a–5f, 10a–10o, and 12a–12o) were screened for antiproliferative activities against three human cancer cell lines (MCF-7, PC-3, and HepG2) and cytotoxicity on a normal human cell (THLE-2) at the concentration of 20 μM by using the CCK8 assay.
(§2) Thirty-six novel steroidal A-ring fused pyrazine hybrids were evaluated by Cell Counting Kit-8 (CCK-8) assays, to evaluate their in vitro antiproliferative activities on three human cancer cell lines and one normal cell line: MCF-7 (breast carcinoma), PC-3 (prostate carcinoma), HepG2 (liver hepatocellular carcinoma), and THLE-2 ([…]), with 5-fluorouracil as the positive control.
(§3) Cells (3 × 10^3 cells per well) seeded into 96-well plates (Costar, Shanghai, China) were incubated with Ham’s F-12K containing various concentrations of steroidal pyrazines (5a–5f, 10a–10o, and 12a–12o) for 48 h at 37 °C and 5% COThen, 10 μL of CCK-8 reagent (Beyotime, Shanghai, China) dissolved in PBS (Phosphate buffered saline) was added per well, and continuously incubated at 37 °C for 1 h. Finally, the absorbance of samples taken from each well was measured on a microplate reader at 450 nm. The antiproliferative activities were expressed as inhibitory activity and IC50 values calculated using GraphPad Software 5.0 (GraphPad Software, San Diego, CA, USA), which were the mean values of three independent tests and are shown in Table 1 and Table 2, respectively. The formula used for cell inhibitory rates was (1 - sample absorption/vehicle absorption) × 100%.

PC-3 cells [1] = assay: Cell cycle assay, PI single staining, flow cytometry; assay type: cell-based, human; conditions: for Percentage of Cell Cycles (%) G1 / Percentage of Cell Cycles (%) S / Percentage of Cell Cycles (%) G2/M: 48 h; for Percentage of Cell Cycles (%) G2/M: control 15.69%
Protocol: To further clarify the effects of A-ring fused steroidal pyrazines on cell growth, the cell cycle distribution of PC-3 cells was investigated through treatment with compound 12n at concentration gradients for 48 h (Figure 5 and Table 5).
The cell cycle was examined by PI single staining (Beyotime, Shanghai, China), as previously described. […] The samples were analyzed using flow cytometry for DNA content (CytoFLEX, California, United States).

[2] = system: THLE-2 (normal human cells); assay: CCK-8 cytotoxicity on normal cells, THLE-2; assay type: cell-based
Protocol: as §1, §2, §3

[3] = system: HepG2 (liver hepatocellular carcinoma); assay: CCK-8 antiproliferative assay, HepG2; assay type: cell-based; conditions: Homo sapiens, 48 h, CCK8, mean of three independent experiments, NA = no activity, read-out: Inhibitory Ratio (Mean% ± SD%) HepG2
Protocol: as §1, §2, §3

PC-3 cells [4] = assay: Giemsa staining for morphological features of apoptosis; assay type: cell-based, human; conditions: 1.0 and 4.0 μM, 48 h
Protocol: After being treated with 12n at different concentrations (1.0 and 4.0 μM), the cells were stained with Giemsa stain. […] Other morphological changes, such as the loss of volume and deformation of a regular appearance, were also found.
Giemsa stain was used to assess the morphological changes of PC-3 cells, according to the standard Giemsa procedure established by the supplier (Solarbio, Beijng, China). Briefly, PC-3 cells were plated at 3 × 10^3 cells/well into a 96-well plates. PC-3 cells after treatment with 12n for 48 h were fixed with methanol (75%) for 10 min at room temperature. Then, the cells were stained with Giemsa (diluted with phosphate buffer), observed, and photographed under the microscope at 200 × (Olympus Corporation, Tokyo, Japan ).

PC-3 cells [5] = assay: Cell apoptosis assay, Annexin V-FITC/PI dual staining, flow cytometry; assay type: cell-based, human; conditions: for Percentage of Cell Apoptosis (%) Normal Living Cell: 48 h (Q1-LL); for Percentage of Cell Apoptosis (%) Early Apoptosis: 48 h (Q1-LR); for Percentage of Cell Apoptosis (%) Necrosis: 48 h (Q1-UL); for Percentage of Cell Apoptosis (%) Late Apoptosis: 48 h (Q1-UR); for apoptosis ratio (early and late apoptotic ratios): 48 h, blank control 5.77%
Protocol: To clarify the effect of steroidal pyrazines on the induction of apoptosis in PC-3 cells, a flow cytometry assay with Annexin-V-FITC/PI double staining was implemented.
The cell apoptosis was evaluated with Annexin V-FITC/PI dual staining (Beyotime, Shanghai, China), as previously described. PC-3 cells (1 × 10^6 cells per well) seeded into 6-well plates (Costar, Shanghai, China) were incubated with Ham’s F-12K containing various concentrations (0.2, 1.0, and 5.0 μM) of compound 12n for 48 h. The biological samples were analyzed using flow cytometry (CytoFLEX, CA, USA).

[6] = system: PC-3 (prostate carcinoma); assay: CCK-8 antiproliferative assay, PC-3; assay type: cell-based, human
Protocol: as §1, §2, §3

P338 = system: P338; set-up: method as in PMID 14695204, PMID 26042639; conditions: cited from earlier work

C[C@@H]1[C@]2(O[C@H]3C=C4[C@@H]5CC[C@H]6Cc7nc8c(nc7C[C@]6(C)[C@H]5C[C@@H](O)[C@]4(C)[C@]31O)C[C@@H]1CC[C@H]3C4=CC[C@@H]5[C@H](C)[C@@]6(OC[C@]45C(=O)C[C@@H]3[C@@]1(C)C8)OC(C)(C)C[C@H]6O)O[C@](C)(CO)C[C@H]2O [Cephalostatin 1]
GI50 (NCI-H460): 0.044 nM
GI50 (MCF-7): 0.099 nM
GI50 (DU-145): 0.11 nM

CC(O)C1CCC2C3CC=C4C(C)(C)c5nc(C(=O)NCCc6ccccc6)cnc5CC4(C)C3CCC12C (stereo not shown) [Compound 12n]
inhibition at 20 µM (MCF-7 (breast carcinoma)): 40.8 ± 1.72%
Percentage of Cell Cycles (%) G1 (PC-3 cells [1]; PC-3, 0.2 μM): 46.65%
Percentage of Cell Cycles (%) S (PC-3 cells [1]; PC-3, 0.2 μM): 37.26%
Percentage of Cell Cycles (%) G2/M (PC-3 cells [1]; PC-3, 0.2 μM): 16.09%
Percentage of Cell Cycles (%) G1 (PC-3 cells [1]; PC-3, 1.0 μM): 23.03%
Percentage of Cell Cycles (%) S (PC-3 cells [1]; PC-3, 1.0 μM): 30.78%
Percentage of Cell Cycles (%) G2/M (PC-3 cells [1]; PC-3, 1.0 μM): 46.19%
percentage of cells in the G2/M phase (PC-3 cells [1]; PC-3, 5.0 μM): 44.27%
Percentage of Cell Cycles (%) G1 (PC-3 cells [1]; PC-3, 5.0 μM): 55.73%
Percentage of Cell Cycles (%) S (PC-3 cells [1]; PC-3, 5.0 μM): 0.00%
Percentage of Cell Cycles (%) G2/M (PC-3 cells [1]; PC-3, 5.0 μM): 44.27%
inhibition at 20 µM ([2]; 20 μM, 48 h, CCK8, NA = no activity, read-out: Inhibitory Ratio (Mean% ± SD%) THLE-2): 19.3 ± 1.81%
IC50 ([2]; CCK-8, 48 h): 26700 nM
inhibition at 20 µM [3]: 55.4 ± 1%
Morphological changes of PC-3 cells (Giemsa stain) (PC-3 cells [4]): could cause the morphological change of PC-3 cells in a dose-dependent manner
Percentage of Cell Apoptosis (%) Normal Living Cell (PC-3 cells [5]; PC-3, 0.2 μM): 89.20%
Percentage of Cell Apoptosis (%) Early Apoptosis (PC-3 cells [5]; PC-3, 0.2 μM): 0.76%
Percentage of Cell Apoptosis (%) Necrosis (PC-3 cells [5]; PC-3, 0.2 μM): 2.15%
Percentage of Cell Apoptosis (%) Late Apoptosis (PC-3 cells [5]; PC-3, 0.2 μM): 7.90%
apoptosis ratio (early and late apoptotic ratios) (PC-3 cells [5]; PC-3, 0.2 μM): 8.66%
Percentage of Cell Apoptosis (%) Normal Living Cell (PC-3 cells [5]; PC-3, 1.0 μM): 73.17%
Percentage of Cell Apoptosis (%) Early Apoptosis (PC-3 cells [5]; PC-3, 1.0 μM): 4.55%
Percentage of Cell Apoptosis (%) Necrosis (PC-3 cells [5]; PC-3, 1.0 μM): 3.21%
Percentage of Cell Apoptosis (%) Late Apoptosis (PC-3 cells [5]; PC-3, 1.0 μM): 19.07%
apoptosis ratio (early and late apoptotic ratios) (PC-3 cells [5]; PC-3, 1.0 μM): 23.62%
Percentage of Cell Apoptosis (%) Normal Living Cell (PC-3 cells [5]; PC-3, 5.0 μM): 54.13%
Percentage of Cell Apoptosis (%) Early Apoptosis (PC-3 cells [5]; PC-3, 5.0 μM): 3.64%
Percentage of Cell Apoptosis (%) Necrosis (PC-3 cells [5]; PC-3, 5.0 μM): 6.30%
Percentage of Cell Apoptosis (%) Late Apoptosis (PC-3 cells [5]; PC-3, 5.0 μM): 35.93%
apoptosis ratio (early and late apoptotic ratios) (PC-3 cells [5]; PC-3, 5.0 μM): 39.57%
inhibition at 20 µM ([6]; Homo sapiens, 48 h, 20 μM, 48 h, CCK8, mean of three independent experiments, NA = no activity, read-out: Inhibitory Ratio (Mean% ± SD%) PC-3): > 60%
IC50 ([6]; Homo sapiens, CCK-8, 48 h, triplicate): 930 ± 20 nM
SI: Selectivity index = (IC50 of THLE-2)/(IC50 of PC-3) ([6]; THLE-2 vs PC-3): 28.71

Ritterazine B
ED50 (nM) for P338 (P338): 0.17 nM
